# Reference: ChEMBL document CHEMBL4828722, “The synthesis and bioactivity of pyrrolo[2,3-d]pyrimidine derivatives as tyrosine kinase inhibitors for NSCLC cells with EGFR mutations” (Eur J Med Chem, 2021)
# Active and inactive are the calls of the source. The calls are words filed in the database; no cut-off is given here.
# System: HCC827
# Test: Induction of cell cycle arrest in human HCC827 cells harboring EGFR del E746-A750 mutant assessed as accumulation of cells in S phase at 5 uM measured after 18 hrs by PI/RNaseA staining based flow cytometry analysis (Rvb= 33.62%)
# Assay type: functional
# Details: not given
row,Structure (SMILES),Activity [%]
1,C=CC(=O)Nc1cccc(Oc2nc(Nc3ccc(N4CCN(C)CC4)c(F)c3)nc3[nH]ccc23)c1 [ABIVERTINIB],10.83

# System: NCI-H1975
# Test: Induction of cell cycle arrest in human NCI-H1975 cells harboring EGFR L858R/T790M mutant assessed as accumulation of cells in S phase at 0.5 uM measured after 18 hrs by PI/RNaseA staining based flow cytometry analysis (Rvb= 39.78%)
# Assay type: functional
# Details: not given
row,Structure (SMILES),Activity [%]
1,C=CC(=O)Nc1cccc(Oc2nc(Nc3ccc(N4CCN(C)CC4)c(F)c3)nc3[nH]ccc23)c1 [ABIVERTINIB],21.24

# System: A549
# Test: Induction of cell cycle arrest in human A549 cells harboring wild type EGFR assessed as accumulation of cells in S phase at 0.5 uM measured after 18 hrs by PI/RNaseA staining based flow cytometry analysis (Rvb= 33.26%)
# Assay type: functional
# Details: not given
row,Structure (SMILES),Activity [%]
1,C=CC(=O)Nc1cccc(Oc2nc(Nc3ccc(N4CCN(C)CC4)c(F)c3)nc3[nH]ccc23)c1 [ABIVERTINIB],30.03

# System: HBE
# Test: Inhibition of AKT/S6 phosphorylation […] in human HBE cells at 5 uM incubated for 2 hrs by immunoblotting analysis
# Assay type: cell-based
# Details: not given
row,Structure (SMILES),inhibition
1,C=CC(=O)Nc1cccc(Oc2nc(Nc3ccc(N4CCN(C)CC4)c(F)c3)nc3[nH]ccc23)c1 [ABIVERTINIB],inactive

# System: NCI-H1975
# Test: Induction of cell cycle arrest in human NCI-H1975 cells harboring EGFR L858R/T790M mutant assessed as accumulation of cells in S phase at 1 uM measured after 18 hrs by PI/RNaseA staining based flow cytometry analysis (Rvb= 39.78%)
# Assay type: functional
# Details: not given
row,Structure (SMILES),Activity [%]
1,C=CC(=O)Nc1cccc(Oc2nc(Nc3ccc(N4CCN(C)CC4)c(F)c3)nc3[nH]ccc23)c1 [ABIVERTINIB],18.87

# System: A549
# Test: Induction of cell cycle arrest in human A549 cells harboring wild type EGFR assessed as accumulation of cells in S phase at 1 uM measured after 18 hrs by PI/RNaseA staining based flow cytometry analysis (Rvb= 33.26%)
# Assay type: functional
# Details: not given
row,Structure (SMILES),Activity [%]
1,C=CC(=O)Nc1cccc(Oc2nc(Nc3ccc(N4CCN(C)CC4)c(F)c3)nc3[nH]ccc23)c1 [ABIVERTINIB],28.99

# System: HCC827
# Test: Induction of cell cycle arrest in human HCC827 cells harboring EGFR del E746-A750 mutant assessed as accumulation of cells in S phase at 1 uM measured after 18 hrs by PI/RNaseA staining based flow cytometry analysis (Rvb= 33.62%)
# Assay type: functional
# Details: not given
row,Structure (SMILES),Activity [%]
1,C=CC(=O)Nc1cccc(Oc2nc(Nc3ccc(N4CCN(C)CC4)c(F)c3)nc3[nH]ccc23)c1 [ABIVERTINIB],15.37

# Biological target: MAP kinase p38 (Homo sapiens) (UniProt O15264+Q15759+Q16539+P53778)
# Test: Inhibition of p38 MAPK phosphorylation at Thr180/Tyr182 residue in human HBE cells at 5 uM incubated for 2 hrs by immunoblotting analysis
# Assay type: cell-based
# Details: not given
row,Structure (SMILES),inhibition
1,C=CC(=O)Nc1cccc(Oc2nc(Nc3ccc(N4CCN(C)CC4)c(F)c3)nc3[nH]ccc23)c1 [ABIVERTINIB],Active

# System: NCI-H1975
# Test: Induction of cell cycle arrest in human NCI-H1975 cells harboring EGFR L858R/T790M mutant assessed as accumulation of cells in G2/M phase at 1 uM measured after 18 hrs by PI/RNaseA staining based flow cytometry analysis (Rvb= 17.33%)
# Assay type: functional
# Details: not given
row,Structure (SMILES),Activity [%]
1,C=CC(=O)Nc1cccc(Oc2nc(Nc3ccc(N4CCN(C)CC4)c(F)c3)nc3[nH]ccc23)c1 [ABIVERTINIB],17.13

# Biological target: Ribosomal protein S6 kinase beta-1 (Homo sapiens) (UniProt P23443)
# Test: Inhibition of P70S6K phosphorylation in human NCI-H1975 cells at 0.1 to 5 uM incubated for 2 hrs by immunoblotting analysis
# Assay type: cell-based
# Details: dose 0.1-5 µM
# Sequence of Ribosomal protein S6 kinase beta-1 (Homo sapiens) (P23443 whole entry, looked up): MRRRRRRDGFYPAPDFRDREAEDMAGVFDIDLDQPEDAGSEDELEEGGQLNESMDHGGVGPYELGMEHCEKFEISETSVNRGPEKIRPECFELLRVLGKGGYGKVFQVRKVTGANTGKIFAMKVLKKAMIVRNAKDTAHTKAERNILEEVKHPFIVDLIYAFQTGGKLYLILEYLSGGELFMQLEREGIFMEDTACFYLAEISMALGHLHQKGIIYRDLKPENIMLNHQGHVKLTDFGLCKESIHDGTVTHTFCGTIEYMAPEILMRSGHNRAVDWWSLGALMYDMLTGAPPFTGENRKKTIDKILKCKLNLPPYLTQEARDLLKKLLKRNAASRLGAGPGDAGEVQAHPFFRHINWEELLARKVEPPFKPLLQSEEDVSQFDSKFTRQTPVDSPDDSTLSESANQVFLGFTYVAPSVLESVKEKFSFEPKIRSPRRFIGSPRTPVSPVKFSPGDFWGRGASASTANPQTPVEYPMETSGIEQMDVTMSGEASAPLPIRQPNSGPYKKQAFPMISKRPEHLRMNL
row,Structure (SMILES),inhibition
1,C=CC(=O)Nc1cccc(Oc2nc(Nc3ccc(N4CCN(C)CC4)c(F)c3)nc3[nH]ccc23)c1 [ABIVERTINIB],Active

# System: HCC827
# Test: Induction of apoptosis in human HCC827 cells harboring EGFR del E746-A750 mutant assessed as total apoptotic cells at 5 uM measured after 18 hrs by Annexin V-FITC/PI staining based flow cytometry analysis (Rvb= 10.8%)
# Assay type: functional
# Details: not given
row,Structure (SMILES),Activity [%]
1,C=CC(=O)Nc1cccc(Oc2nc(Nc3ccc(N4CCN(C)CC4)c(F)c3)nc3[nH]ccc23)c1 [ABIVERTINIB],35.4

# System: NCI-H1975
# Test: Induction of cell cycle arrest in human NCI-H1975 cells harboring EGFR L858R/T790M mutant assessed as accumulation of cells in G2/M phase at 0.5 uM measured after 18 hrs by PI/RNaseA staining based flow cytometry analysis (Rvb= 17.33%)
# Assay type: functional
# Details: not given
row,Structure (SMILES),Activity [%]
1,C=CC(=O)Nc1cccc(Oc2nc(Nc3ccc(N4CCN(C)CC4)c(F)c3)nc3[nH]ccc23)c1 [ABIVERTINIB],17.05

# System: NCI-H1975
# Test: Induction of apoptosis in human NCI-H1975 cells harboring EGFR L858R/T790M mutant assessed as live cells at 5 uM measured after 18 hrs by Annexin V-FITC/PI staining based flow cytometry analysis (Rvb= 89.4%)
# Assay type: functional
# Details: not given
row,Structure (SMILES),Activity [%]
1,C=CC(=O)Nc1cccc(Oc2nc(Nc3ccc(N4CCN(C)CC4)c(F)c3)nc3[nH]ccc23)c1 [ABIVERTINIB],86.3

# System: A549
# Test: Induction of cell cycle arrest in human A549 cells harboring wild type EGFR assessed as accumulation of cells in G2/M phase at 0.5 uM measured after 18 hrs by PI/RNaseA staining based flow cytometry analysis (Rvb= 8.47%)
# Assay type: functional
# Details: not given
row,Structure (SMILES),Activity [%]
1,C=CC(=O)Nc1cccc(Oc2nc(Nc3ccc(N4CCN(C)CC4)c(F)c3)nc3[nH]ccc23)c1 [ABIVERTINIB],10.15

# System: HCC827
# Test: Induction of cell cycle arrest in human HCC827 cells harboring EGFR del E746-A750 mutant assessed as accumulation of cells in G2/M phase at 1 uM measured after 18 hrs by PI/RNaseA staining based flow cytometry analysis (Rvb= 16.78%)
# Assay type: functional
# Details: not given
row,Structure (SMILES),Activity [%]
1,C=CC(=O)Nc1cccc(Oc2nc(Nc3ccc(N4CCN(C)CC4)c(F)c3)nc3[nH]ccc23)c1 [ABIVERTINIB],11.63

# System: BEAS-2B
# Test: Cytotoxicity against human BEAS-2B cells assessed as reduction in cell viability measured after 48 hrs by CCK8 assay
# Assay type: cell-based
# Details: not given
row,Structure (SMILES),IC50 [µM]
1,C=CC(=O)Nc1cccc(Oc2nc(Nc3ccc(N4CCN(C)CC4)c(F)c3)nc3[nH]ccc23)c1 [ABIVERTINIB],3.68

# System: NCI-H1975
# Test: Induction of apoptosis in human NCI-H1975 cells harboring EGFR L858R/T790M mutant assessed as early apoptotic cells at 5 uM measured after 18 hrs by Annexin V-FITC/PI staining based flow cytometry analysis (Rvb= […])
# Assay type: functional
# Details: not given
row,Structure (SMILES),Activity [%]
1,C=CC(=O)Nc1cccc(Oc2nc(Nc3ccc(N4CCN(C)CC4)c(F)c3)nc3[nH]ccc23)c1 [ABIVERTINIB],11.3

# System: NCI-H1975
# Test: Induction of apoptosis in human NCI-H1975 cells harboring EGFR L858R/T790M mutant assessed as dead cells at 0.5 uM measured after 18 hrs by Annexin V-FITC/PI staining based flow cytometry analysis (Rvb= […])
# Assay type: functional
# Details: not given
row,Structure (SMILES),Activity [%]
1,C=CC(=O)Nc1cccc(Oc2nc(Nc3ccc(N4CCN(C)CC4)c(F)c3)nc3[nH]ccc23)c1 [ABIVERTINIB],1.5

# System: HCC827
# Test: Induction of apoptosis in human HCC827 cells harboring EGFR del E746-A750 mutant assessed as late apoptotic cells at 0.5 uM measured after 18 hrs by Annexin V-FITC/PI staining based flow cytometry analysis (Rvb= 1.2%)
# Assay type: functional
# Details: not given
row,Structure (SMILES),Activity [%]
1,C=CC(=O)Nc1cccc(Oc2nc(Nc3ccc(N4CCN(C)CC4)c(F)c3)nc3[nH]ccc23)c1 [ABIVERTINIB],18.3

# Biological target: Ribosomal protein S6 kinase beta-1 (Homo sapiens) (UniProt P23443)
# Test: Inhibition of P70S6K phosphorylation in human HCC827 cells at 0.1 to 5 uM incubated for 2 hrs by immunoblotting analysis
# Assay type: cell-based
# Details: dose 0.1-5 µM
row,Structure (SMILES),inhibition
1,C=CC(=O)Nc1cccc(Oc2nc(Nc3ccc(N4CCN(C)CC4)c(F)c3)nc3[nH]ccc23)c1 [ABIVERTINIB],Active

# System: A549
# Test: Induction of cell cycle arrest in human A549 cells harboring wild type EGFR assessed as accumulation of cells in G2/M phase at 5 uM measured after 18 hrs by PI/RNaseA staining based flow cytometry analysis (Rvb= 8.47%)
# Assay type: functional
# Details: not given
row,Structure (SMILES),Activity [%]
1,C=CC(=O)Nc1cccc(Oc2nc(Nc3ccc(N4CCN(C)CC4)c(F)c3)nc3[nH]ccc23)c1 [ABIVERTINIB],7.55

# System: A549
# Test: Cytotoxicity against human A549 cells harboring wild type EGFR assessed as reduction in cell viability measured after 48 hrs by CCK8 assay
# Assay type: functional, cell-based
# Details: A549, 48 h
row,Structure (SMILES),IC50 [µM]
1,C=CC(=O)Nc1cccc(Oc2nc(Nc3ccc(N4CCN(C)CC4)c(F)c3)nc3[nH]ccc23)c1 [ABIVERTINIB],1.92

# System: HCC827
# Test: Induction of apoptosis in human HCC827 cells harboring EGFR del E746-A750 mutant assessed as live cells at 0.5 uM measured after 18 hrs by Annexin V-FITC/PI staining based flow cytometry analysis (Rvb= 87.5%)
# Assay type: functional
# Details: not given
row,Structure (SMILES),Activity [%]
1,C=CC(=O)Nc1cccc(Oc2nc(Nc3ccc(N4CCN(C)CC4)c(F)c3)nc3[nH]ccc23)c1 [ABIVERTINIB],67.9

# System: NCI-H1975
# Test: Induction of apoptosis in human NCI-H1975 cells harboring EGFR L858R/T790M mutant assessed as early apoptotic cells at 0.5 uM measured after 18 hrs by Annexin V-FITC/PI staining based flow cytometry analysis (Rvb= […])
# Assay type: functional
# Details: not given
row,Structure (SMILES),Activity [%]
1,C=CC(=O)Nc1cccc(Oc2nc(Nc3ccc(N4CCN(C)CC4)c(F)c3)nc3[nH]ccc23)c1 [ABIVERTINIB],8.3

# System: HCC827
# Test: Induction of cell cycle arrest in human HCC827 cells harboring EGFR del E746-A750 mutant assessed as accumulation of cells in G0/G1 phase at 5 uM measured after 18 hrs by PI/RNaseA staining based flow cytometry analysis (Rvb= 49.60%)
# Assay type: functional
# Details: not given
row,Structure (SMILES),Activity [%]
1,C=CC(=O)Nc1cccc(Oc2nc(Nc3ccc(N4CCN(C)CC4)c(F)c3)nc3[nH]ccc23)c1 [ABIVERTINIB],80.34

# System: HCC827
# Test: Induction of cell cycle arrest in human HCC827 cells harboring EGFR del E746-A750 mutant assessed as accumulation of cells in G2/M phase at 0.5 uM measured after 18 hrs by PI/RNaseA staining based flow cytometry analysis (Rvb= 16.78%)
# Assay type: functional
# Details: not given
row,Structure (SMILES),Activity [%]
1,C=CC(=O)Nc1cccc(Oc2nc(Nc3ccc(N4CCN(C)CC4)c(F)c3)nc3[nH]ccc23)c1 [ABIVERTINIB],9.53

# System: HCC827
# Test: Inhibition of AKT phosphorylation in human HCC827 cells at 0.1 to 5 uM incubated for 2 hrs by immunoblotting analysis
# Assay type: cell-based
# Details: dose 0.1-5 µM
row,Structure (SMILES),inhibition
1,C=CC(=O)Nc1cccc(Oc2nc(Nc3ccc(N4CCN(C)CC4)c(F)c3)nc3[nH]ccc23)c1 [ABIVERTINIB],Active

# System: HCC827
# Test: Induction of apoptosis in human HCC827 cells harboring EGFR del E746-A750 mutant assessed as dead cells at 5 uM measured after 18 hrs by Annexin V-FITC/PI staining based flow cytometry analysis (Rvb= […])
# Assay type: functional
# Details: not given
row,Structure (SMILES),Activity [%]
1,C=CC(=O)Nc1cccc(Oc2nc(Nc3ccc(N4CCN(C)CC4)c(F)c3)nc3[nH]ccc23)c1 [ABIVERTINIB],1.5
